Earlier results as cited in patent US20190021998A1, “TOPICAL NANOEMULSION THERAPY FOR WOUNDS” (THE REGENTS OF THE UNIVERSITY OF MICHIGAN, priority 2014, published 2019).

Settings: footnote *

Compound: CCCCCCCCCCCCCCCCCC[N+](C)(C)CCCCCCCCCCCCCCCCCC [DODAC, Dioctadecyl dimethyl ammonium chloride]
- CMC (mM), critical concentration for unilamellar vesicles: 10* mM
